In the oligonucleotide strings, read from the 5' end, every base follows the letter of its sugar. An asterisk marks phosphorothioate; unmarked linkages are phosphodiester. Other units and linkages are bracketed, terminal groups are in braces. A string of capitals states the bases alone. {D01} = GalNAc ligand D01, attached to sense strand by a phosphodiester bond; m = 2'-O-methyl; f = 2'-fluoro
How the values were obtained:
HEK BLUE hTLR7 = assay: Cell activity detection (CellTiter-Glo) in hTLR7 cells; format: cell-based, human; settings: 24 h, maximum concentration 200 nM, read-out: CC50
Procedure: (§1) 1) The conjugate of the present invention was diluted to a concentration that was 20 times a final concentration, the diluted conjugate was mixed with RNAiMAX-OPTI MEM (RNAiMAX:OPTI MEM=3:47) at a ratio of 1:1 and incubated for 15 min at room temperature.
(§2) 2) 10 μL of incubated conjugate of the present invention was added into a corresponding cell plate, with 10 concentrations in total, a maximum concentration being 200 nM, and double duplicated wells for each concentration.
(§3) 4) 90 μL of cells were seeded into a 96-well plate with the conjugate at the density of 50,000 cells/well.
(§4) 5) The conjugate of the present invention and the cells were co-incubated for 24 h in an incubator under the conditions of 37° C. and 5% CO2.
(§5) 8) Cell activity detection: the operation was carried out according to the method in the Celltiter-Glo specification, and a chemiluminescence signals (RLU) were detected using the multifunctional microplate reader Flexstation III.
(§6) Compound activity: the OD650 values were analyzed using GraphPad Prism software, and a dose effect curve of the compound was fit, and the EC50 value of the compound was calculated. Cell activity detection: the calculation formula of cell activity % was as follows. The cell activity % value was analyzed using GraphPadPrism software, the dose effect curve of the compound was fit, and the CC50 value of the compound on cell was calculated.

HEK BLUE hTLR3 = assay: Cell activity detection (CellTiter-Glo) in hTLR3 cells; format: cell-based, human; settings: 24 h, maximum concentration 200 nM, read-out: CC50
Procedure: as §1, §2, §3, §4, §5, §6

HEK BLUE hTLR8 = assay: Cell activity detection (CellTiter-Glo) in hTLR8 cells; format: cell-based, human; settings: 24 h, maximum concentration 200 nM, read-out: CC50
Procedure: as §1, §2, §3, §4, §5, §6

hTLR8 = biological target: T1, hTLR8 (Homo sapiens, UniProt Q9NR97); assay: Agonistic activity on hTLR8 cells (HEK BLUE, QUANTI-Blue OD650); format: cell-based; settings: 24 h, transfection with RNAiMAX, maximum concentration 200 nM
T1 construct: host or cells: HEK BLUE hTLR8 (HEK293-derived SEAP reporter line)
T1 sequence (Q9NR97 27-1041): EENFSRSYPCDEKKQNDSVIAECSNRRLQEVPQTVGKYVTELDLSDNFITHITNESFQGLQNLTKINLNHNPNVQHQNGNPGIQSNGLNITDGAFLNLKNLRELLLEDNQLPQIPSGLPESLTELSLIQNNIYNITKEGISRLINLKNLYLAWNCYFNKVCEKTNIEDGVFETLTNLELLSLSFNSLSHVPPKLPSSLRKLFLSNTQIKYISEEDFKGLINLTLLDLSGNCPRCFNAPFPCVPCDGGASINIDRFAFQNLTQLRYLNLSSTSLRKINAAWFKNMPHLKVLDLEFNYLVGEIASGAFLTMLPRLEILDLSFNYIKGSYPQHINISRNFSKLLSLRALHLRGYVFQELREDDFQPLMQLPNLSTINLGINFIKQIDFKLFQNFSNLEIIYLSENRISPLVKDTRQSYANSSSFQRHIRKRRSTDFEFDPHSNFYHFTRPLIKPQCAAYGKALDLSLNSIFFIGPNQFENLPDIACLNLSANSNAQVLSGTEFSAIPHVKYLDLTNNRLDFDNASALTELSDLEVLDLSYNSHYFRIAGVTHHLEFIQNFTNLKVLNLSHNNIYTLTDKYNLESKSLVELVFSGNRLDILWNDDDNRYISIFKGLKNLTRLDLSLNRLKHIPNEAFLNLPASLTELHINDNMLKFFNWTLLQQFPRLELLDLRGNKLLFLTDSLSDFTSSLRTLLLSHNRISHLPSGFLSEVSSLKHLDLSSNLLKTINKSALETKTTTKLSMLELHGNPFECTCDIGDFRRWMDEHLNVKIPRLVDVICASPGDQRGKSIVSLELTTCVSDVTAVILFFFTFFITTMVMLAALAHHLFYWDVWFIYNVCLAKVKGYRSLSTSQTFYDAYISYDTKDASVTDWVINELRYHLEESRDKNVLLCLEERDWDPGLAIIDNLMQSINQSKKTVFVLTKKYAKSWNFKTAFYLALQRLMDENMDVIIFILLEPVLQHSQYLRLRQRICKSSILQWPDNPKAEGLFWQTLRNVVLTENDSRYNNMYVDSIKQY
Procedure: as §1, §2
(§7) 10 μL of 0.5 μM BLOCK-iT™ Alexa Fluor® Red Fluorescent Control was added into 2 transfection positive control wells.
4) 90 μL of cells were seeded into a 96-well plate with the conjugate at the density of 50,000 cells/well. […]
(§8) 7) Compound activity detection: 20 μL of cell supernatant was taken from each well and added into an experimental plate containing 180 μL of QUANTI-Blue™ reagent and then incubated for 1 h at 37° C., followed by detecting an absorbance values at 650 nm (OD650) using the multifunctional microplate reader Flexstation III.
as §6, with “Cell activity detection: the calculation formula of cell activity % was as follows.” left out

hTLR3 = biological target: T2, hTLR3 (Homo sapiens, UniProt O15455); assay: Agonistic activity on hTLR3 cells (HEK BLUE, QUANTI-Blue OD650); format: cell-based; settings: 24 h, transfection with RNAiMAX, maximum concentration 200 nM, read-out: EC50
T2 construct: host or cells: HEK BLUE hTLR3 (HEK293-derived SEAP reporter line)
T2 sequence (O15455 24-904): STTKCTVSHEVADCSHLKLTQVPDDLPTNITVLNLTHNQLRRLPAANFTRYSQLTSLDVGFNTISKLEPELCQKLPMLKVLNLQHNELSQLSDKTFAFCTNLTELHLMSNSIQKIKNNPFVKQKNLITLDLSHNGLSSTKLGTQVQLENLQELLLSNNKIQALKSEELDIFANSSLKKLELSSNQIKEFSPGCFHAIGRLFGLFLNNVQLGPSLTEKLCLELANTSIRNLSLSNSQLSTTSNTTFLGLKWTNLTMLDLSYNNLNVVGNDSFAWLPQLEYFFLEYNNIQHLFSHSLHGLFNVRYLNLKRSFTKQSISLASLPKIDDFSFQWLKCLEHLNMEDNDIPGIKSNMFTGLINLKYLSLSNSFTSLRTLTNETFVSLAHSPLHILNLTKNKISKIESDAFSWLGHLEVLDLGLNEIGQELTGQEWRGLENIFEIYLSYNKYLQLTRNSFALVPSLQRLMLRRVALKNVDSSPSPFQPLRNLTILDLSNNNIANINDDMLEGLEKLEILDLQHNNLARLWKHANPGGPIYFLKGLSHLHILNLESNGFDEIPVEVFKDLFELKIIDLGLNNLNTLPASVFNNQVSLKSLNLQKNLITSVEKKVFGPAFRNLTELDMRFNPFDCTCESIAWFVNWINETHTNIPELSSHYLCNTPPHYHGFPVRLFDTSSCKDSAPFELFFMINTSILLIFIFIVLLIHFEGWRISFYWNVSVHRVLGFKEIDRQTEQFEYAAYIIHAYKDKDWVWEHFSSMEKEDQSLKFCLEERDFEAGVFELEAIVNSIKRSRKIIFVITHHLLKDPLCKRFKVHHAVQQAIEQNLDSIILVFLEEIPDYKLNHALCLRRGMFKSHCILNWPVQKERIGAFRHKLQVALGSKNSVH
Procedure: as §1, §2, §7, §3, §4, §8, §6

Conjugate 2: Double-stranded RNAi analog against AGT, D01 GalNAc ligand on sense strand; sense SEQ ID NO: 6, antisense SEQ ID NO: 2 containing Z (sense mA*mU*fCfCmAfCfAfAmUmGmAmGmAfGmUmAmCmA-{D01}; antisense CUCACAUGUACNCUCAUUGUGGAUGACGA; antisense: chemistry not given here; antisense strand modified, includes nucleotide analog Z, further chemistry not fully specified)
> 200 nM: CC50 (HEK BLUE hTLR7) | CC50 (HEK BLUE hTLR3) | CC50 (HEK BLUE hTLR8) | EC50 (hTLR8) | EC50 (hTLR3)

Conjugate 3: Double-stranded RNAi analog against AGT, D01 GalNAc ligand on sense strand; sense SEQ ID NO: 7, antisense SEQ ID NO: 2 containing Z (sense mA*mU*fCfCmAfCfAfAmUmGmAfGmAmGmUmAmCmA-{D01}; antisense CUCACAUGUACNCUCAUUGUGGAUGACGA; antisense: chemistry not given here; antisense strand modified, includes nucleotide analog Z, further chemistry not fully specified)
> 200 nM: CC50 (HEK BLUE hTLR7) | CC50 (HEK BLUE hTLR3) | CC50 (HEK BLUE hTLR8) | EC50 (hTLR8) | EC50 (hTLR3)

Reference: US20260071220A1, “CONJUGATE OF NUCLEOTIDE ANALOG-CONTAINING DOUBLE-STRANDED RNAI ANALOG” (BaseCure Therapeutics LLC, priority 2022, published 2026)
